The test system of series [1] is healthy mice. In words: Toxicity in healthy mice. Conditions: for well tolerated maximal dose: mice weighing about 25 g. Format: in vivo. The procedure:
Accordingly, a well tolerated maximal dose for CCompound1 or CCompound3 in mice (weighing about 25 g) is […] which corresponds to a dose of 4.6 mg/kg. Therapeutically effective concentrations of CC compounds in humans will exert significant promoting effects on bone marrow regeneration without causing toxicity in other normal healthy tissues.

Series [2] deals with healthy mice. In words: Toxicity in healthy mice. It is filed as in vivo. As to conditions: 1,000-1,500 μmole doses.
Series [3] deals with granulocyte-macrophage colony-forming units (CFU-GM). Put plainly: Recovery of bone marrow function after sublethal whole body irradiation (nucleated BM cells, CFU-GM assay). As to conditions: for CFU-GM per femur / CFU-GM/10^5 nucleated BM cells: CCompound1 4.5 mg per kg i.p. daily, day -3 to day +3; for CFU-GM/10^5 nucleated BM cells: colonies counted on day 7 of culture. Format: in vivo, C57B1 mice. The procedure:
This experiment served to determine if CCompound1 was able to promote regeneration of partially ablated bone marrow from endogenous stem cells i.e. promote restoration of the capacity of bone marrow to produce blood cells. The CFU-GM assay was performed because the number of CFU-GM per femur is a good indicator of bone marrow regeneration. Ballestrero, A., Ferrando, F., Garuti, A., Basta, P., Gonella, R., Stura, P., Mela, G. S., Sessarego, M, Gobbi, M. and Patrone, F., “Comparative effects of three cytokine regimens after high-dose cyclophosphamide: Granulocyte colony-stimulating factor, granulocyte-macrophage colony-stimulating factor (GM-CSF), and sequential interleukin-3 and GM-CSF,” J. Clin. Oncol., 17, 1296-1303 (1999).
C57B1 female (10-14 weeks old) mice received sublethal (250 cGy) whole body irradiation from a ^137Cesium source (day 0). Starting three days before irradiation, animals received daily 4.5 mg per kg of CCompound1 via intraperitoneal injection; this treatment also was provided on day 0 and once daily for three days subsequent to irradiation. In another group, mice were injected only with physiological saline. The subsequent procedure has been reported in Vas, V., Fajka-Boja, R., Ion, G. A., Dudics, V., Monostori, E. and Uher, F., “Biphasic effect of recombinant Galectin-1 on the growth and death of early hematopoietic cells,” Stem Cells, 23, 279-287 (2005). Briefly, bone marrow was flushed from the femurs with Iscove's modified Dulbecco's medium (Gibco BRL, Gaithersburg, Md., USA), and after standard erythrocyte lysis, nucleated cells were counted using a hemocytometer. […] To measure the formation of the granulocyte-macrophage colony-forming units (CFU-GM), a semisolid colony-forming cell assay was used. Nucleated bone marrow cells (isolated on the days as indicated above) were plated in 35-mm Petri dishes (Costar, Cambridge, Mass., USA) in Iscove's modified Dulbecco's medium supplemented with 1% methylcellulose, 30% horse serum (Gibco), 10% WEHI-3B conditioned medium as a source of growth factors, 4 mM L-glutamine, 0.25 mM a-thioglycerol (Gibco), 1% deionized bovine serum albumine (Sigma), and antibiotics (Gibco). Cells were cultured at 37° C. in 5% CO2/95% air atmosphere and colonies were counted on day 7 in the same dish. Colonies containing at least 50 cells were counted which is a generally accepted value in the literature. Each value represents the mean±st. dev. of 9 samples (3 parallel dishes from each animal).

Where [4] appears, read: single 450 μmole (about 4.6 mg/kg) or daily 400 μmole for 5 consecutive days.
Setting [5] is: day 3 after 250 cGy irradiation.
[6] abbreviates: day 6 after 250 cGy irradiation.
[7] abbreviates: day 10 after 250 cGy irradiation.

The structures appear in SMILES notation.

Turning to `Cc1c(OCC(O)C[N+](C)(C)C)cc2c(=O)c3ccccc3sc2c1C.[Cl-]` (stereo not drawn) [CCcompound1, [3-(3,4-Dimethyl-9-oxo-9H-thioxanthen-2-yloxy)-2-hydroxypropyl]trimethyl-ammonium chloride], the “well tolerated maximal dose” value in series [1] was 450 μmole/animal; in series [1] (corresponds to 450 μmole/animal), 4.6 mg/kg. Besides, the “change in the composition of various blood constituents” value in series [1] (setting [4]) is “did not cause any significant change”. For the same compound, in series [1] (setting [4]), the “pathological alterations in the liver, brain, kidney, heart, spleen, intestine, and lung” value is reported as “did not induce significant pathological alterations”. Further, in series [2], the “tissue alterations at high doses” value was “mild parenchymal degeneration in the heart, focal hypostasis and chronic bronchopneumonia”. Moreover, the CFU-GM per femur in series [3] (setting [5]) is 508; in series [3] (setting [6]), 713; in series [3] (setting [7]), 1,081. Further, the “CFU-GM/10^5 nucleated BM cells” value is listed as 87.8 ± 9.0 in series [3] (setting [5]), 92.3 ± 7.2 in series [3] (setting [6]) and 94.4 ± 8.1 in series [3] (setting [7]). In series [3] (from the third day on after sublethal irradiation), the “effect on number of nucleated bone marrow cells and CFU-GM” value is “enhanced the number of nucleated bone marrow cells and CFU-GM”.
